# Data as given in PubChem BioAssay AID504507 (The Scripps Research Institute Molecular Screening Center, 2011).
# Target: sn-1-specific diacylglycerol lipase ABHD11 (Mus musculus) (UniProt Q8K4F5)
# Test: mouse ABHD11 inhibitor potency, late-stage follow-up, selectivity assay for LYPLA1 inhibitor project, biochemical, gel-based fluorescent ABPP, set 2 (AID 504507)
# Settings: mouse proteome gel-based ABPP, fluorescent probe labeling
# sn-1-specific diacylglycerol lipase ABHD11 (Mus musculus), sequence (Q8K4F5 whole entry, looked up): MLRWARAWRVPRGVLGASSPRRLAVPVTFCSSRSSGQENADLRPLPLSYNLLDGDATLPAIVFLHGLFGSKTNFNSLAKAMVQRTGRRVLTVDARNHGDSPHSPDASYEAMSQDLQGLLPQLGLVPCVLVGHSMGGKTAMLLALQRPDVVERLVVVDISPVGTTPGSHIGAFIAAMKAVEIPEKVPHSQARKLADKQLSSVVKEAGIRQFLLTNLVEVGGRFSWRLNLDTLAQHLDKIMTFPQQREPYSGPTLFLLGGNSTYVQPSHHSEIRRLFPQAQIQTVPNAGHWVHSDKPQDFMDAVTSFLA
row,IC50,Structure (SMILES)
1,1 nM,COCC1CCCCN1C(=O)n1ncc(C(O)(c2ccccc2)c2ccccc2)n1 (configuration not stated)
2,15 nM,CCC1CCCCN1C(=O)n1ncc(C(O)(c2ccccc2)c2ccccc2)n1 (configuration not stated)
